Experimental data taken from ChEMBL document CHEMBL5728681, “Macrocyclic compounds as TRK kinase inhibitors and uses thereof” (2021).
pIC50: −log10 of the molar value.

Biological target: High affinity nerve growth factor receptor (Homo sapiens, UniProt P04629)
Assay: HotSpot Assay: The HotSpot assay platform was used to measure kinase/inhibitor interactions as described in Anastassiadis et al., Nat Biotechnol. 29:1039-45, 2011. In brief, for each reaction, kinase and substrate were mixed in a buffer containing 20 mM HEPES (pH 7.5), 10 mM MgCl2, 1 mM EGTA, 0.02% Brij35, 0.02 mg/mL BSA, 0.1 mM Na3VO4, 2 mM DTT, and 1% DMSO. Compounds were then added to each reaction mixture. After a 20-min incubation, ATP (Sigma-Aldrich) and [γ-33P] ATP (PerkinElmer) were added at a final total concentration of 100 μM. Reactions were carried out at room temperature for 2 h and spotted onto P81 ion exchange cellulose chromatography paper (Whatman). Filter paper was washed in 0.75% phosphoric acid to remove unincorporated ATP. The percent remaining kinase activity relative to a vehicle-containing (DMSO) kinase reaction was calculated for each kinase/inhibitor pair.

Sequence of High affinity nerve growth factor receptor (P04629 whole entry): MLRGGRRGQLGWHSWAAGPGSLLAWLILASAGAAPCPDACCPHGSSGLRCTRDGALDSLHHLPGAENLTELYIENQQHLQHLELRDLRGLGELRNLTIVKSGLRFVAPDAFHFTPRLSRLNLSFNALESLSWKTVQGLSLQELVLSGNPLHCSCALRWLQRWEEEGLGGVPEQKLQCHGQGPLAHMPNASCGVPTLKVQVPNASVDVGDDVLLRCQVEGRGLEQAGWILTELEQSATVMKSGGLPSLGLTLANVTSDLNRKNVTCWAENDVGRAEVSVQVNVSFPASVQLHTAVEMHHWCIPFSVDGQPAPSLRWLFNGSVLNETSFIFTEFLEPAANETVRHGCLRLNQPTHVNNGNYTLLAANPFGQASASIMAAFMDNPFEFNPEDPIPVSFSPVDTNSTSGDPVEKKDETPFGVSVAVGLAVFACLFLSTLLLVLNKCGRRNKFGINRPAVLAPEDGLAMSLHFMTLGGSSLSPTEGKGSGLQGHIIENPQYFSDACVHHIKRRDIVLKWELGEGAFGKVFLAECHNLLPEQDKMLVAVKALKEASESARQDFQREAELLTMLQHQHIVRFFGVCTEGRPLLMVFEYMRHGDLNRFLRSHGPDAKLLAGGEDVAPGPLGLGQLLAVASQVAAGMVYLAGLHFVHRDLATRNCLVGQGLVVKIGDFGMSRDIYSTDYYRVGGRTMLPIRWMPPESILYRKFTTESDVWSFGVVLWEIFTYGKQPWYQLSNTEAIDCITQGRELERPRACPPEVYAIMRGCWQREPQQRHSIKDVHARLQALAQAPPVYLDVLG

**Q.** How did the pIC50 turn out when `C=C1c2ncc(F)cc2[C@H]2CCCN2c2ccn3ncc(c3n2)C(=O)N[C@@H]1C` was run?
**A.** > 7.00
